Experimental data as given in patent US9458137B2, “Substituted indol-5-ol derivatives and their therapeutical applications” (NantBioScience, Inc., priority 2012, dated 2016).

Assays:
Test in all cases: Kinase panel activity
Format in all cases: biochemical
Settings in all cases: 0.1 μM, ATP Km
[1] = molecular target: Arg(h) (Homo sapiens, UniProt P42684)
Method: (§1) The effect of NTW-3475 on kinase activity was tested for a wide range of kinases and is shown in Table 2: Summary Sheet, Activity % ATP Concentration: Km

[2] = molecular target: B1k(m) (Mus musculus, UniProt P16277)
Method: as §1

[3] = molecular target: BRK(h) (Homo sapiens, UniProt Q13882)
Method: as §1

[4] = molecular target: BTK(h) (Homo sapiens, UniProt Q06187)
Method: as §1

[5] = molecular target: BrSK1(h) (Homo sapiens, UniProt Q8TDC3)
Method: as §1

[6] = molecular target: CDK2/cyclinE(h) (Homo sapiens, UniProt P24941)
Method: as §1

[7] = molecular target: CHK2(II57T)(h) (Homo sapiens, UniProt O96017, I157T)
Method: as §1

[8] = molecular target: CK2(h) (Homo sapiens, UniProt P68400)
Method: as §1

[9] = molecular target: CaMKIδ(h) (Homo sapiens, UniProt Q8IU85)
Method: as §1

[10] = molecular target: DMPK(h) (Homo sapiens, UniProt Q09013)
Method: as §1

[11] = molecular target: T1, DRAK1(h) (Homo sapiens, UniProt Q9UEE5)
T1 construct: purchased Millipore (KinaseProfiler service)
Method: as §1

[12] = molecular target: T2, EGFR(L858R)(h) (Homo sapiens, UniProt P00533, L858R)
T2 construct: purchased Millipore (KinaseProfiler service)
Method: as §1

[13] = molecular target: T3, EGFR(T790M)(h) (Homo sapiens, UniProt P00533, T790M)
T3 construct: purchased Millipore (KinaseProfiler service)
Method: as §1

[14] = molecular target: T4, EphA2(h) (Homo sapiens, UniProt P29317)
T4 construct: purchased Millipore (KinaseProfiler service)
Method: as §1

[15] = molecular target: T5, FAK(h) (Homo sapiens, UniProt Q05397)
T5 construct: purchased Millipore (KinaseProfiler service)
Method: as §1

[16] = molecular target: FGFR2(h) (Homo sapiens, UniProt P21802)
Method: as §1

[17] = molecular target: GRK6(h) (Homo sapiens, UniProt P43250)
Method: as §1

[18] = molecular target: HIPK1(h) (Homo sapiens, UniProt Q86Z02)
Method: as §1

[19] = molecular target: IGF-1R(h) (Homo sapiens, UniProt P08069)
Method: as §1

[20] = molecular target: JNK1α1(h) (Homo sapiens, UniProt P45983)
Method: as §1

[21] = molecular target: JNK3(h) (Homo sapiens, UniProt P53779)
Method: as §1

[22] = molecular target: T6, MELK(h) (Homo sapiens, UniProt Q14680)
T6 construct: purchased Millipore (KinaseProfiler service)
Method: as §1

[23] = molecular target: T7, MKK7β(h) (Homo sapiens, UniProt O14733)
T7 construct: purchased Millipore (KinaseProfiler service)
Method: as §1

[24] = molecular target: MST2(h) (Homo sapiens, UniProt Q13188)
Method: as §1

[25] = molecular target: T8, Met(Y1248H)(h) (Homo sapiens, UniProt P08581, Y1230H)
T8 construct: purchased Millipore (KinaseProfiler service)
Method: as §1

[26] = molecular target: PKBα(h) (Homo sapiens, UniProt P31749)
Method: as §1

[27] = molecular target: PRAK(h) (Homo sapiens, UniProt Q8IW41)
Method: as §1

[28] = molecular target: T9, PRK2(h) (Homo sapiens, UniProt Q16513)
T9 construct: purchased Millipore (KinaseProfiler service)
Method: as §1

[29] = molecular target: T10, RIPK2(h) (Homo sapiens, UniProt O43353)
T10 construct: purchased Millipore (KinaseProfiler service)
Method: as §1

[30] = molecular target: T11, ROCK-II(h) (Homo sapiens, UniProt O75116)
T11 construct: purchased Millipore (KinaseProfiler service)
Method: as §1

[31] = molecular target: T12, Rsk3(h) (Homo sapiens, UniProt Q15349)
T12 construct: purchased Millipore (KinaseProfiler service)
Method: as §1

[32] = molecular target: T13, SAPK2a(T106M)(h) (Homo sapiens, UniProt Q16539, T106M)
T13 construct: purchased Millipore (KinaseProfiler service)
Method: as §1

[33] = molecular target: T14, SIK(h) (Homo sapiens, UniProt P57059)
T14 construct: purchased Millipore (KinaseProfiler service)
Method: as §1

[34] = molecular target: T15, Src(1-530)(h) (Homo sapiens, UniProt P12931)
T15 construct: Src(1-530)(h); purchased Millipore (KinaseProfiler service)
Method: as §1

[35] = molecular target: T16, TSSK2(h) (Homo sapiens, UniProt Q96PF2)
T16 construct: purchased Millipore (KinaseProfiler service)
Method: as §1

[36] = molecular target: ZAP-70(h) (Homo sapiens, UniProt P43403)
Method: as §1

[37] = molecular target: ZIPK(h) (Homo sapiens, UniProt O43293)
Method: as §1

[38] = molecular target: cKit(D816H)(h) (Homo sapiens, UniProt P10721, D816H)
Method: as §1

[39] = molecular target: mTOR/FKBP12(h) (Homo sapiens, UniProt P42345)
Method: as §1

Sequence of cKit(D816H)(h) (P10721 26-976 D816H): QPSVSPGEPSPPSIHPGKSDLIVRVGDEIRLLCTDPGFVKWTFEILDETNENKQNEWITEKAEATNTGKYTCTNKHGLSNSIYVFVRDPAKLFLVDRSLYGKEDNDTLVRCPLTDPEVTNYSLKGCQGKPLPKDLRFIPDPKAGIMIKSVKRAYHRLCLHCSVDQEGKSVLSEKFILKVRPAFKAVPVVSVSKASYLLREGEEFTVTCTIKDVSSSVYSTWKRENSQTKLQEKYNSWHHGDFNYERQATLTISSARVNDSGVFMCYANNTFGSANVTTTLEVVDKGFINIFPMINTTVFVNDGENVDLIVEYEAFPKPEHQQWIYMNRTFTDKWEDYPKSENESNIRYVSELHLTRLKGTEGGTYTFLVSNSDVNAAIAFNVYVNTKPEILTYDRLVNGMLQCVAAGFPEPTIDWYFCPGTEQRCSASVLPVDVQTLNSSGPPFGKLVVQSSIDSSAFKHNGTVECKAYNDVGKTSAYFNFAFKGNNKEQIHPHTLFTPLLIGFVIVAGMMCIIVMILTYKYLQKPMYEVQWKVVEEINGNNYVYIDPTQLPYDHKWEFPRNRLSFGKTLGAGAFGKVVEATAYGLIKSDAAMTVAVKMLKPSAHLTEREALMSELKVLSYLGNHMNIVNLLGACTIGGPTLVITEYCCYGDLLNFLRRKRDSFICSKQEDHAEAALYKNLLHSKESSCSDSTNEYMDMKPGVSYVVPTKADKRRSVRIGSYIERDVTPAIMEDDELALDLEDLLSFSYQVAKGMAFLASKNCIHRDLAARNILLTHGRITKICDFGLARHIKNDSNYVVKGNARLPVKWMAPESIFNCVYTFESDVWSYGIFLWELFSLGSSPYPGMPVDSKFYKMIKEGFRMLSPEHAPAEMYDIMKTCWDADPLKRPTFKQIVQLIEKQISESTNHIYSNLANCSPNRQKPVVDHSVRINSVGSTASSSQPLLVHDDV
Sequence of GRK6(h) (P43250 whole entry): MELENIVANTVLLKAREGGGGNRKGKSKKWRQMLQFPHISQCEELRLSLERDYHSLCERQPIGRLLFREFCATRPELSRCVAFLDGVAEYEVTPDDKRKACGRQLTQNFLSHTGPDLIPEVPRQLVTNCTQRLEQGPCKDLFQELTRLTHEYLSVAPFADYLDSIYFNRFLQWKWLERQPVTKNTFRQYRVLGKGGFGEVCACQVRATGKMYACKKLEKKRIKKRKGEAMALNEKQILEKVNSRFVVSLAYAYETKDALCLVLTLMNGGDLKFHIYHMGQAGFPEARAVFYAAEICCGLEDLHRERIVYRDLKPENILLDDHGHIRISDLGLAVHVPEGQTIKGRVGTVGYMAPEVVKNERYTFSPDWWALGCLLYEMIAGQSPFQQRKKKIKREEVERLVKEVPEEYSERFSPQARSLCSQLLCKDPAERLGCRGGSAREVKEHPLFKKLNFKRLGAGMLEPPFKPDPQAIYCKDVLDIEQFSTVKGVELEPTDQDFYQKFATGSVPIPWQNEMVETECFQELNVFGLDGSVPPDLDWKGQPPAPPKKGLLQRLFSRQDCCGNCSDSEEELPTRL
Sequence of B1k(m) (P16277 whole entry): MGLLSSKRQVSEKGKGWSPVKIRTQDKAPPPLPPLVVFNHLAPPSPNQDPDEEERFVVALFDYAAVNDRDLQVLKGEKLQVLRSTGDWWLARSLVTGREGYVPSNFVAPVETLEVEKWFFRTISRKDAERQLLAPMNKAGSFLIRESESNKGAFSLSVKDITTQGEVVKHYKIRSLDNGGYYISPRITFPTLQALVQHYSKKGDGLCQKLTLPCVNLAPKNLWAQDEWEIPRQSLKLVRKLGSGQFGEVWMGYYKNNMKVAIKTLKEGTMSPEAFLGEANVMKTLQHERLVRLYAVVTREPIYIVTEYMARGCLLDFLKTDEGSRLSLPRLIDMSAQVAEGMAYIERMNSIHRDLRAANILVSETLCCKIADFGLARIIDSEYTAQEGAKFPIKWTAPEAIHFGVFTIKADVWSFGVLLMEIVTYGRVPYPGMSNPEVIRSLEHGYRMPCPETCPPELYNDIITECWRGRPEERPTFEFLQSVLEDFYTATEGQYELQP
T9 sequence (Q16513 whole entry): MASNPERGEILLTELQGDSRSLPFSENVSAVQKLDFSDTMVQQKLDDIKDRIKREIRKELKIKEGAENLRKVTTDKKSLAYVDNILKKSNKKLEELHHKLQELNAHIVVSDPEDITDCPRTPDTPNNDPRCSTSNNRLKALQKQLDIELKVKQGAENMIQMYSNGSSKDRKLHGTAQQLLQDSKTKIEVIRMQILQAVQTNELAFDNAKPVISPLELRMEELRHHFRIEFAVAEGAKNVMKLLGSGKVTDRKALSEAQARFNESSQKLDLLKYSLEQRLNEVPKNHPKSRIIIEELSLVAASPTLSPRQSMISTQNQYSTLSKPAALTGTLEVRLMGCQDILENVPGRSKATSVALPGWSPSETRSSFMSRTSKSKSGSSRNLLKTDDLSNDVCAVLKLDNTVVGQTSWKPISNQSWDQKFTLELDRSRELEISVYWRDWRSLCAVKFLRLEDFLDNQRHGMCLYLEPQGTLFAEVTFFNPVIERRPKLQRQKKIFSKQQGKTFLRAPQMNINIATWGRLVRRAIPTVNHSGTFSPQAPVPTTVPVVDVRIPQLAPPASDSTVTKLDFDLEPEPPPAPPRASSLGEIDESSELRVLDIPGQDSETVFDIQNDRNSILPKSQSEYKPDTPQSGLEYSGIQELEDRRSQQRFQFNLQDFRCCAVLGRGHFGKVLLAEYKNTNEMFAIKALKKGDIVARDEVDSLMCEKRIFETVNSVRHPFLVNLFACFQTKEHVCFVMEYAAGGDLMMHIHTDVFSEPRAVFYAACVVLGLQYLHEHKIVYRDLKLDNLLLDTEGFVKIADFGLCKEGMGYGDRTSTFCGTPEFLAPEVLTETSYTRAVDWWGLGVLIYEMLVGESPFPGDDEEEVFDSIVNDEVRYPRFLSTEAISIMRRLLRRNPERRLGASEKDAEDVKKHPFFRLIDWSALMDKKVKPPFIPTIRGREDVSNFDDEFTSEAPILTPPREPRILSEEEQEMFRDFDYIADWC
T14 sequence (P57059 whole entry): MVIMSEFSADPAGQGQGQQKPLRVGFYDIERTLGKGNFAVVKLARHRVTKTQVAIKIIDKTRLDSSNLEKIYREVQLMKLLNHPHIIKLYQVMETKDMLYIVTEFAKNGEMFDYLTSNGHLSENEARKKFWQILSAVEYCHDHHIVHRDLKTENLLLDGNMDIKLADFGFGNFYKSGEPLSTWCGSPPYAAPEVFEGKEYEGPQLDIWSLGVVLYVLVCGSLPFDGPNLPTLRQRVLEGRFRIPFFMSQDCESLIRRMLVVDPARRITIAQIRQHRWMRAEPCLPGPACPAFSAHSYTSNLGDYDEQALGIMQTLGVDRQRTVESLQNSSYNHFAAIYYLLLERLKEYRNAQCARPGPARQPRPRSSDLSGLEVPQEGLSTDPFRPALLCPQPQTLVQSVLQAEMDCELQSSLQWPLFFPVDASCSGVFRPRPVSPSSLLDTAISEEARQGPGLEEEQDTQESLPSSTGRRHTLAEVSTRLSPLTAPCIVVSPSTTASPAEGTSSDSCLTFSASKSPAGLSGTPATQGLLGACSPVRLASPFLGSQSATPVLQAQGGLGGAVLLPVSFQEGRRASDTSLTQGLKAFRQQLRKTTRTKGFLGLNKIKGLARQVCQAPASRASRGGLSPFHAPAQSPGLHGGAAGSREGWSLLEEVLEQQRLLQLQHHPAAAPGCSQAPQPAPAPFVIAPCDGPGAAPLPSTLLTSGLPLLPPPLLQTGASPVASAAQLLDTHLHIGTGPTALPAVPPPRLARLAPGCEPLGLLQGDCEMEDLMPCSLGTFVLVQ
T1 sequence (Q9UEE5 whole entry): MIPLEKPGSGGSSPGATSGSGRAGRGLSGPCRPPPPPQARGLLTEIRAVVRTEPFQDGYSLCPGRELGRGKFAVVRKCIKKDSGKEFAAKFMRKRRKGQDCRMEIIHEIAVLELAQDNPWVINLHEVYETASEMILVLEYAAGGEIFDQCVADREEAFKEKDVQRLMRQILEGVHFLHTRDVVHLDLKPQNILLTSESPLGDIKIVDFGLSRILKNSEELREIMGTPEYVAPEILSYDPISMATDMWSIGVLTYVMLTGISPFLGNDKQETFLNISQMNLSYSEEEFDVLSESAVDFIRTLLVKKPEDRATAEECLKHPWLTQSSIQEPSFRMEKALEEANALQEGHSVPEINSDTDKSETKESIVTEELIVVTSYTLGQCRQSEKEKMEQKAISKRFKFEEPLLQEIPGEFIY
Sequence of ZIPK(h) (O43293 whole entry): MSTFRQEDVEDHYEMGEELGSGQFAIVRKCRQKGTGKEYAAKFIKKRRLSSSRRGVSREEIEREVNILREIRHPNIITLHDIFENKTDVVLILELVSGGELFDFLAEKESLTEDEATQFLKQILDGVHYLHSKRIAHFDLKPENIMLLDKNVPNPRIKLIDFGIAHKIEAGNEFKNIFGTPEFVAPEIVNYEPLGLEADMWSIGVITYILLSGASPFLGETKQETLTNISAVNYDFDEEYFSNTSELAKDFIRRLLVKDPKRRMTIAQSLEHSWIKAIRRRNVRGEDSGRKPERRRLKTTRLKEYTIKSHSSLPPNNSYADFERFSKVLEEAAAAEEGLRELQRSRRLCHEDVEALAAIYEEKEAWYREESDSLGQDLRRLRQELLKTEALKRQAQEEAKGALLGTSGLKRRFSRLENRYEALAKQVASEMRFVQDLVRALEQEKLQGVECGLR
T16 sequence (Q96PF2 whole entry): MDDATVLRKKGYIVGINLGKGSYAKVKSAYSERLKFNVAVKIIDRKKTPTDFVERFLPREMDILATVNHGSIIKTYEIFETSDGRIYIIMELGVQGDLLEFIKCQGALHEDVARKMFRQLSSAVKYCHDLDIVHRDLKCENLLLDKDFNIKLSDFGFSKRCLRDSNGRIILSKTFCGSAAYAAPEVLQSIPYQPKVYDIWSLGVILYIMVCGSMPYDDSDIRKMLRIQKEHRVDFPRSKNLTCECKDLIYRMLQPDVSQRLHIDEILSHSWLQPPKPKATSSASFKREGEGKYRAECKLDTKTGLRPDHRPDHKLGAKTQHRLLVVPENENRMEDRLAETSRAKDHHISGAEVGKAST

Activity % [1]: −3%
Activity % [2]: 14%
Activity % [3]: 33%
Activity % [4]: 37%
Activity % [5]: 53%
Activity % [6]: 89%
Activity % [7]: 112%
Activity % [8]: 85%
Activity % [9]: 87%
Activity % [10]: 102%
Activity % [11]: 51%
Activity % [12]: 72%
Activity % [13]: 61%
Activity % [14]: −1%
Activity % [15]: 78%
Activity % [16]: 0%
Activity % [17]: 69%
Activity % [18]: 91%
Activity % [19]: 5%
Activity % [20]: 92%
Activity % [21]: 111%
Activity % [22]: 40%
Activity % [23]: 97%
Activity % [24]: 79%
Activity % [25]: 16%
Activity % [26]: 109%
Activity % [27]: 100%
Activity % [28]: 30%
Activity % [29]: 90%
Activity % [30]: 58%
Activity % [31]: 25%
Activity % [32]: 95%
Activity % [33]: 33%
Activity % [34]: −2%
Activity % [35]: 84%
Activity % [36]: 110%
Activity % [37]: 104%
Activity % [38]: 9%
Activity % [39]: 63%
SMILES: Cc1cc2c(F)c(Oc3nc(Nc4cc(C5CC5)[nH]n4)cc(N4CCN(C)CC4)n3)cc(F)c2[nH]1 [NTW-3475]
